Measured values published in ChEMBL document CHEMBL1201862, “PubChem BioAssay data set” (2004).
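Grown in 96-well plates, cells were treated for 48 hours with each compound at five concentrations. Insufficient inhibition: endpoint recorded as highest concentration tested. Abbreviation: GI50, concentration required for 50% inhibition of growth.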 Active and inactive are the calls of the source. No stated cut-off is given here; in the data, active = GI50 up to about 1.1 µM and inactive = higher.

Tests used:
Experiment in all cases: DTP human tumour cell line panel, 48 h
786-0 = test system: 786-0
SK-MEL-2 = test system: SK-MEL-2
SNB-75 = test system: SNB-75
U-251 = test system: U-251
SF-539 = test system: SF-539
HCC 2998 = test system: HCC 2998
OVCAR-5 = test system: OVCAR-5
BT-549 = test system: BT-549
OVCAR-3 = test system: OVCAR-3
CCRF-CEM = test system: CCRF-CEM
HCT-116 = test system: HCT-116
RXF 393 = test system: RXF 393
MDA-MB-231 = test system: MDA-MB-231
NCI-H522 = test system: NCI-H522
DU-145 = test system: DU-145
MDA-MB-435 = test system: MDA-MB-435
SW-620 = test system: SW-620
NCI-H460 = test system: NCI-H460
RPMI-8226 = test system: RPMI-8226
PC-3 = test system: PC-3
MCF7 = test system: MCF7
CAKI-1 = test system: CAKI-1
IGROV-1 = test system: IGROV-1
A498 = test system: A498
HT-29 = test system: HT-29
SN12C = test system: SN12C
Malme-3M = test system: Malme-3M
MDA-N = test system: MDA-N
SF-268 = test system: SF-268
COLO 205 = test system: COLO 205
HL-60 = test system: HL-60
T47D = test system: T47D
SF-295 = test system: SF-295
KM12 = test system: KM12
MOLT-4 = test system: MOLT-4
SR = test system: SR
EKVX = test system: EKVX
TK-10 = test system: TK-10
A549 = test system: A549
OVCAR-8 = test system: OVCAR-8
SK-MEL-5 = test system: SK-MEL-5
LOX IMVI = test system: LOX IMVI
M14 = test system: M14
K562 = test system: K562
NCI/ADR-RES = test system: NCI/ADR-RES
UACC-62 = test system: UACC-62
NCI-H23 = test system: NCI-H23
NCI-H226 = test system: NCI-H226
HCT-15 = test system: HCT-15
SNB-19 = test system: SNB-19
UACC-257 = test system: UACC-257
SK-MEL-28 = test system: SK-MEL-28
HOP-62 = test system: HOP-62
Hs-578T = test system: Hs-578T
UO-31 = test system: UO-31
SK-OV-3 = test system: SK-OV-3
ACHN = test system: ACHN
HOP-92 = test system: HOP-92
OVCAR-4 = test system: OVCAR-4

`CCN1CCC(O)(/C=C/c2ccc(C)cc2)C(C(=O)/C=C/c2ccc(C)cc2)C1` (centres undefined) was tested, and the GI50 (786-0) was 2.08 µM (inactive), the GI50 (SK-MEL-2) was 3.75 µM (inactive) and the GI50 (SNB-75) was 9.79 µM (inactive). For the same compound, the GI50 (U-251) was 3.12 µM (inactive), the GI50 (SF-539) was 3.61 µM (inactive) and the GI50 (HCC 2998) was 2.29 µM (inactive). The GI50 (OVCAR-5) was 10.5 µM (inactive), the GI50 (BT-549) was 3.5 µM (inactive) and the GI50 (OVCAR-3) was 6.32 µM (inactive). For the same compound, the GI50 (CCRF-CEM) was 1.73 µM (inactive), the GI50 (HCT-116) was 1.91 µM (inactive) and the GI50 (RXF 393) was 2.79 µM (inactive). For the same compound, the GI50 (MDA-MB-231) was 2.07 µM (inactive), the GI50 (NCI-H522) was 1.7 µM (inactive) and the GI50 (DU-145) was 11.8 µM (inactive). For the same compound, the GI50 (MDA-MB-435) was 2.93 µM (inactive), the GI50 (SW-620) was 1.75 µM (inactive) and the GI50 (NCI-H460) was 4.45 µM (inactive). The GI50 (RPMI-8226) was 2.77 µM (inactive), the GI50 (PC-3) was 4.49 µM (inactive) and the GI50 (MCF7) was 2.36 µM (inactive). For the same compound, the GI50 (CAKI-1) was 2.78 µM (inactive), the GI50 (IGROV-1) was 6.55 µM (inactive) and the GI50 (A498) was 10.3 µM (inactive). The GI50 (HT-29) was 2.61 µM (inactive), the GI50 (SN12C) was 7.69 µM (inactive) and the GI50 (Malme-3M) was 6.75 µM (inactive). The GI50 (MDA-N) was 3.18 µM (inactive), the GI50 (SF-268) was 9.57 µM (inactive) and the GI50 (COLO 205) was 1.75 µM (inactive). For the same compound, the GI50 (HL-60) was 1.79 µM (inactive), the GI50 (T47D) was 2.82 µM (inactive) and the GI50 (SF-295) was 10.6 µM (inactive). For the same compound, the GI50 (KM12) was 2.19 µM (inactive), the GI50 (MOLT-4) was 1.63 µM (inactive) and the GI50 (SR) was 2.37 µM (inactive). The GI50 (EKVX) was 13.2 µM (inactive), the GI50 (TK-10) was 5.45 µM (inactive) and the GI50 (A549) was 8.24 µM (inactive). For the same compound, the GI50 (OVCAR-8) was 2.81 µM (inactive), the GI50 (SK-MEL-5) was 3.43 µM (inactive) and the GI50 (LOX IMVI) was 1.31 µM (inactive). For the same compound, the GI50 (M14) was 2.83 µM (inactive), the GI50 (K562) was 2.36 µM (inactive) and the GI50 (NCI/ADR-RES) was 2.61 µM (inactive). For the same compound, the GI50 (UACC-62) was 3.08 µM (inactive), the GI50 (NCI-H23) was 6.35 µM (inactive) and the GI50 (NCI-H226) was 15.5 µM (inactive). For the same compound, the GI50 (HCT-15) was 4.06 µM, the GI50 (SNB-19) was 9.42 µM (inactive) and the GI50 (UACC-257) was 12.5 µM (inactive). The GI50 (SK-MEL-28) was 5.86 µM (inactive), the GI50 (HOP-62) was 12.5 µM (inactive) and the GI50 (Hs-578T) was 1.86 µM (inactive). For the same compound, the GI50 (UO-31) was 3.85 µM (inactive), the GI50 (SK-OV-3) was 15.6 µM (inactive) and the GI50 (ACHN) was 3.7 µM (inactive). The GI50 (HOP-92) was 6.81 µM (inactive) and the GI50 (OVCAR-4) was 9.82 µM (inactive).
